Data published in patent US9701680B2, “Pyrimidine and pyridine compounds and their usage” (HUTCHISON MEDIPHARMA LIMITED, priority 2013, dated 2017).
Read-outs that look alike come from different tables or passages of the source.

Legend:
[1] = molecular target: Recombinant human FGFR2 (Homo sapiens, UniProt P21802); experiment: Transcreener Kinase Assay of FGFR2; assay type: biochemical
Procedure: Example 24: Transcreener Kinase Assay of FGFR2
• 1. […] Prepare Solution • Test compounds were solved in DMSO and were diluted with assay buffer to 5 folds of final concentration keeping the DMSO concentration at 5%. Further dilution are needed to make final concentrations are at 1, 0.33, 0.11, 0.037, 0.012, 0.004, 0.0014, 0.0005 μM; (the final concentration of DMSO is 1%). • Enzyme/Substrate stock Preparation: Recombinant human FGFR2 and Poly E4Y are both diluted in assay buffer. The final concentration is 0.3 ng/μL for FGFR2 and 62.5 ng/μL for Poly E4Y. The mixture is being kept in ice before use; • Prepare ATP Diluents, 10 mM ATP is diluted in assay buffer, the final concentration is 25 μM; • Prepare ADP Diluents: diluted ADP (500 μM) in assay buffer, the final concentration is 25 μM; • Prepare ATP standard curve stock as following:
• 3. Enzymatic Reaction • In a 96-well plate, add 5 μL of deluted solution of test compound or control solution. (positive control: 5 μL of 5% DMSO; negative control: 5 μL of 500 mM EDTA) into desired wells respectively; • Add 10 μL of Enzyme/Substrate stock into each well; • Add 10 μL of ATP Diluents to initiate the enzyme reaction and vortex the plate immediately on a plate shaker; • For the wells to make standard curve, add 5 μL of 5% DMSO, 10 μL of assay buffer and 10 μL of ATP standard curve stock. • Incubate the plate for 45 min at 28° C. on a plate shaker in a low speed. • 4. Stoping Reaction and Detecting ADP • Detection Mix Preparation: The mixture is made by dilution with MilliQ water; as following: ADP Alexa633 tracer (1:100), ADP antibody (1:158), and stop & detect buffer (1:10); • Tracer Only control Preparation: The mixture is made by dilution with MilliQ water; as following: ADP Alexa633 tracer (1:100), and stop & detect buffer (1: 10) • No Tracer control Preparation: stop & detect buffer is diluted with MilliQ water; by 10 fold. • Add 25 μL of detection mix, Tracer Only control and No Tracer control into corresponding wells, respectively; • Incubate at 28° C. for 1 h, on a plate shaker in a low speed; • Measure florescence polarization (mP) on TECAN F500. Excitation wavelength: 610 nm, Emission wavelength: 670 nm. • 5. Data Analysis
(§1) [formula] Note: • [ADP] in Compound well represents the ADP concentration in test compound well. • [ADP] in Positive control well represents the ADP concentration in 5% DMSO well • Conversion of mP value to ADP concentration is calculated based on the formula which determined by standard curve. And mP value is measured by following the instruction provided by BellBrook Labs. (www.bellbrooklabs.com). • 6. IC50: determined with add-in software for Microsoft Excel, XLfit™ (version 2.0) from ID Business Solutions (Guildford, UK).

[2] = molecular target: FGFR3 kinase (Homo sapiens, UniProt P22607); experiment: Z-Lyte Kinase Assay of FGFR3; assay type: biochemical
Procedure: Example 25: Z-Lyte Kinase Assay of FGFR3
• 1. Materials and Reagents:
• 2. Reaction Steps: Plate Map
• 3. […] The final concentrations are 1, 0.33, 0.11, 0.037, 0.012, 0.004, 0.0014, 0.00046 μM, and the final concentration of DMSO is 2%. • 3) Kinase/Peptide Mixture (P/K solution): Prepare Kinase/Peptide Mixture by diluting the kinase to 0.7 μg/ml and the Z-LYTE™ Tyr 4 peptide to 4 μM in 1.33× Kinase Buffer. Mix gently by pipetting. • 4) Phospho-peptide Solution (PP solution): Add 0.4 μl of Z-LYTE™ Tyr 4 Phospho-peptide to 99.6 μl of 1.33× Kinase Buffer. • 5) ATP Solution: Prepare ATP Solution by diluting the 10 mM of ATP in 1.33× Kinase Buffer to 300 uM. • 6) Development Solution: Dilute Development Reagent B with Development Buffer as 1:128. • 4. […] Shake the plate for 30 Sec and centrifuge (1500 rpm, 1 min). • Seal the plate to protect from the light and incubate the plate for 1 hour at RT (25-30° C.). • 2) Development reaction • Add 5 μl of the Development solution to all wells. • Shake the plate for 30 Sec and centrifuge (1500 rpm, 1 min). • Seal the plate to protect from the light and incubate the plate for 1 hour at RT (25-30° C.). • 3) Stop and Read • Add 5 μl of the Stop reagent to all wells. • Shake the plate for 30 Sec and centrifuge (1500 rpm, 1 min). • Measure the value of Coumarin (Ex400 nm, Em445 nm) and fluorescein (Ex400 nm, Em520 nm), respectively. • 5. Data Analysis Emission Ratio(ER)=Coumarin Emission (445 nm)/Fluorescein Emission (520 nm) % Phosphorylation=1−[ER×C3520nm-C3445nm]/[(C1445nm-C3445nm)+ER×(C3520nm−C1520nm)] Inhibition rate (IR)=1−% Photest Cpd/% PhoC2 • 6. IC50 Value: determined with add-in software for Microsoft Excel, XLfit™ (version 2.0) from ID Business Solutions (Guildford, UK)

[3] = test system: RT-112; experiment: Cellular Proliferation Assay (Cell Counting Kit-8), RT-112; assay type: cell-based; conditions: Homo sapiens; RT-112 cells, 72 hours
Procedure: (§2) Example 26: Cellular Proliferation Assay
(§3) • 1. Cell Line • KG-1 (ATCC Accession No. CCL-246), • SNU-16 (ATCC Accession No. CRL-5974), • RT-112 (ECACC Accession No. 85061106) • 2. Assay Protocol • FGFR related cancer cell proliferation is measured in 96-well plates using Cell Counting Kit-8 (Dojindo CK04-13). • Seed 30000 cells/well of KG1, 5000 cells/well of SNU16, and 1000 cells/well of RT112 in a volume of 100 μL/well in growth media. • After 24 hours, dilute the test compound to 10, 3.3, 1.1, 0.37, 0.12, 0.04, 0.013, 0.004 μM, keeping the DMSO concentration at 5%. • Add 10 μL of 8-point compound series to the wells of culturing cells. • Incubate at 37° C. and 5% CO2 for 72 hours • Add 10 μL/well of CCkit8 and incubate at 37° C. and 5% CO2 for an hour • Detect the optical density of each well at 450 nm on Labsystems Multiskan K3. • 3. Data Analysis
(§4) [formula] Note: • ODcompound well represents the optical density of cells treated with compound. • ODcell well represents the optical density of cells without compounds treatment.(only 0.5% DMSO) • ODcontrol well represents the optical density of culture media background • IC50: determined with add-in software for Microsoft Excel, XLfit™ (version 2.0) from ID Business Solutions (Guildford, UK).

[4] = molecular target: Recombinant human FGFR1 (Homo sapiens, UniProt P11362); experiment: Transcreener Kinase Assay of FGFR1; assay type: biochemical
Procedure: • 1. […] Prepare Solution • Test compounds were solved in DMSO and were diluted with assay buffer to 5 folds of final concentration keeping the DMSO concentration at 5%. Further dilution are needed to make final concentrations are at 1, 0.33, 0.11, 0.037, 0.012, 0.004, 0.0014, 0.0005 μM; (the final concentration of DMSO is 1%). • Enzyme/Substrate stock Preparation: Recombinant human FGFR1 and Poly E4Y are both diluted in assay buffer.
• 3. Enzymatic Reaction • In a 96-well plate, add 5 μL of diluted solution of test compound or control solution. (positive control: 5 μL of 5% DMSO; negative control: 5 μL of 500 mM EDTA) into desired wells respectively; • Add 10 μL of Enzyme/Substrate stock into each well; • Add 10 μL of ATP Diluents to initiate the enzyme reaction and vortex the plate immediately on a plate shaker; • For the wells to make standard curve, add 5 μL of 5% DMSO, 10 μL of assay buffer and 10 μL of ATP standard curve stock. • Incubate the plate for 45 min at 28° C. on a plate shaker in a low speed. • 4. […] Excitation wavelength: 610 nm, Emission wavelength: 670 nm. • 5. Data Analysis
as §1

[5] = test system: SNU-16; experiment: Cellular Proliferation Assay (Cell Counting Kit-8), SNU-16; assay type: cell-based; conditions: Homo sapiens; SNU-16 cells, 72 hours
Procedure: as §2, §3, §4

[6] = test system: KG-1; experiment: Cellular Proliferation Assay (Cell Counting Kit-8), KG-1; assay type: cell-based; conditions: Homo sapiens; KG-1 cells, 72 hours; read-out: KG1 IC50
Procedure: as §2, §3, §4

Sequence of Recombinant human FGFR1 (P11362 22-822): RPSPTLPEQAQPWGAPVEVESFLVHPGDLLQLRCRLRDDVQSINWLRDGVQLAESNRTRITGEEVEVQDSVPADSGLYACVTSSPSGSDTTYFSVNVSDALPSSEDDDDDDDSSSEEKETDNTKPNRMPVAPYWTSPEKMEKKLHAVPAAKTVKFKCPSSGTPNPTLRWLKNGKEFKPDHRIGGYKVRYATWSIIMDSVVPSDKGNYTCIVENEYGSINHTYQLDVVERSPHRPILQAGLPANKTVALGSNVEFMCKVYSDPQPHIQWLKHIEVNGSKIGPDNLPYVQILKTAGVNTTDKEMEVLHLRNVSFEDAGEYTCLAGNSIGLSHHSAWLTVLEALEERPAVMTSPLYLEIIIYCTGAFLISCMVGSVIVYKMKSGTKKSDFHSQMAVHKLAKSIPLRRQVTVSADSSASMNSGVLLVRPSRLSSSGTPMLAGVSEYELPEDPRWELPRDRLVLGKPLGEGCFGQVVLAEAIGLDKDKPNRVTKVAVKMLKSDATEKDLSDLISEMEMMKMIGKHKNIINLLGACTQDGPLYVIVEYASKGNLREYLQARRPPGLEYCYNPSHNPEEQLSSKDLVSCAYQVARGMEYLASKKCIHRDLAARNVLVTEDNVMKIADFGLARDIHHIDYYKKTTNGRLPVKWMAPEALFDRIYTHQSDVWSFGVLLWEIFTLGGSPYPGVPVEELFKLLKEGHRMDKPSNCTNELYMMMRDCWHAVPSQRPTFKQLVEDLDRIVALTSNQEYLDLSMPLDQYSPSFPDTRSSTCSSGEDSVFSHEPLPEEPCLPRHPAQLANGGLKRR
Sequence of Recombinant human FGFR2 (P21802 22-821): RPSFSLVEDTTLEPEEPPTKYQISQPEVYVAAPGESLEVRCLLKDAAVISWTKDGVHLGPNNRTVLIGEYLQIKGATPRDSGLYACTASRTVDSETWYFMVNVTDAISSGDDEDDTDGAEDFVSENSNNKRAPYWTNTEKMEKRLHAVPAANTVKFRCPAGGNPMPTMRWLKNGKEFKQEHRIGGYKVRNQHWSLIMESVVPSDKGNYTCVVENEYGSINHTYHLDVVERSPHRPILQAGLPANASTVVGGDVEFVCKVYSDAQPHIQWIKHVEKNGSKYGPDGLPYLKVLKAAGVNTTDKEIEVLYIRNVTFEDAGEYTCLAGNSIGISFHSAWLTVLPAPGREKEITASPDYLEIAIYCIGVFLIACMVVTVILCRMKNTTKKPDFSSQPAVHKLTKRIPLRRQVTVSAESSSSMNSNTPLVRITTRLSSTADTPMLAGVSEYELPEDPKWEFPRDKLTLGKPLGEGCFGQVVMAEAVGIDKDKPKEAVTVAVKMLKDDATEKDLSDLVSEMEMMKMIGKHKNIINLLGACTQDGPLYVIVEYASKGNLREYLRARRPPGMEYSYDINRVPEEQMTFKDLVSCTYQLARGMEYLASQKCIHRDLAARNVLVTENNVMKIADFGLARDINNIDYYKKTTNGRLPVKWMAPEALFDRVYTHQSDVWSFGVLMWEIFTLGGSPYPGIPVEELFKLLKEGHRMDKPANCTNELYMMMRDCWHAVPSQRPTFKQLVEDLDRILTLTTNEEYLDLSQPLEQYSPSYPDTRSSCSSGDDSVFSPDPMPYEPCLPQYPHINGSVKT
Sequence of FGFR3 kinase (P22607 23-806): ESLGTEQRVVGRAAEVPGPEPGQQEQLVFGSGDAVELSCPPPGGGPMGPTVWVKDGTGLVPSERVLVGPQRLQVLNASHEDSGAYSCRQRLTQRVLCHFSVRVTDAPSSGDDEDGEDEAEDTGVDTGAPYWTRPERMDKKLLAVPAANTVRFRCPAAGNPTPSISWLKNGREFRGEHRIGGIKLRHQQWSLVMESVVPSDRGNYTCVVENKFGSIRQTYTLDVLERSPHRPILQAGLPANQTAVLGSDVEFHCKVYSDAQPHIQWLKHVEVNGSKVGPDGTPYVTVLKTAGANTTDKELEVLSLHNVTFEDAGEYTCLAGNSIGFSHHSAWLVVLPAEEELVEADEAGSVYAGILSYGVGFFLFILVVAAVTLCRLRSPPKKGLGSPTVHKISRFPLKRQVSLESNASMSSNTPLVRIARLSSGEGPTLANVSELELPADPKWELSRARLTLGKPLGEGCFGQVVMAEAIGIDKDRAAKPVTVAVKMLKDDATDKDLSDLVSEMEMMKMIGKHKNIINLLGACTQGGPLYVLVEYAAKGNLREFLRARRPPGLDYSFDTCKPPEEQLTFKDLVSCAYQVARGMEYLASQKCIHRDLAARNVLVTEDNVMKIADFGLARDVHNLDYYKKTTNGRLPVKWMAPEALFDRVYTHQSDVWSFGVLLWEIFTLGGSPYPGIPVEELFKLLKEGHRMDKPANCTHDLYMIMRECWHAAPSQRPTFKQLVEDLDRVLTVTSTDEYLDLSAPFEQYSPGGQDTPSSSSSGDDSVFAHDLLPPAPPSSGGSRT

| SMILES | IC50 ([1]; read-out: FGFR2 (FP) IC50) | IC50 [2] | IC50 [3] | IC50 ([4]; read-out: FGFR1 (FP) IC50) | IC50 [5] | IC50 [6] | IC50 ([1]; FP) | IC50 ([2]; Z-lyte) | IC50 ([4]; FP) |
| --- | --- | --- | --- | --- | --- | --- | --- | --- | --- |
| CNC(=O)c1cc(COc2cnc(Nc3cccc(-n4ccnn4)c3)nc2)c(Cl)c(OC)c1 [Compound 234] | 4 nM | 30 nM | 35 nM | 6 nM | 15 nM | 14 nM | – | – | – |
| CCOc1cc(CCc2cnc(Nc3ccc(N4CCN(CC)CC4)cc3)nc2)cc(C(=O)NOC)c1 [Compound 50] | – | – | – | – | 581 nM | 387 nM | – | – | – |
| C#Cc1ccc(Nc2ncc(OCc3cc(C(=O)NC)cc(OC)c3F)cn2)cn1 [Compound 211] | 16 nM | 42 nM | 78 nM | 40 nM | 155 nM | 103 nM | – | – | – |
| CNC(=O)c1cc(COc2cnc(Nc3ccc4c(c3)NCC4)nc2)c(F)c(OC)c1 [Compound 214] | 25 nM | 19 nM | 90 nM | 67 nM | 27 nM | 6 nM | – | – | – |
| CNC(=O)c1cc(CCc2cnc(Nc3ccc(N4CCN(C)CC4)c(OC)c3)nc2)c(Cl)c(OC)c1 [Compound 177] | 5 nM | 6 nM | 11 nM | 6 nM | 2 nM | 11 nM | – | – | – |
| CCn1cc(Nc2ncc(/C=C/c3cc(C(=O)NC)cc(OC)c3Br)cn2)cn1 [Compound 3] | 28 nM | 188 nM | – | 28 nM | – | – | – | – | – |
| CNC(=O)c1cc(COc2cnc(Nc3ccc(N4C[C@@H]5CCN(C)[C@@H]5C4)c(OC)c3)nc2)c(F)c(OC)c1 [Compound 293] | – | – | – | – | – | – | 8 nM | 11 nM | 18 nM |
| CNC(=O)c1cc(COc2cnc(Nc3ccc(N4CCN(C5CCCC5)CC4)c(OC)c3)nc2)c(F)c(OC)c1 [Compound 302] | – | – | – | – | – | – | 7 nM | 9 nM | 12 nM |
| CNC(=O)c1cc(CCc2cnc(Nc3cccc(N4C[C@@H](C)N[C@@H](C)C4)c3)nc2)cc(OC)c1 [Compound 12] | – | – | – | – | 266 nM | – | – | – | – |
| CNC(=O)c1cc(COc2cnc(Nc3cnn(C[C@@H](O)CO)c3)nc2)c(F)c(OC)c1 [Compound 219] | 10 nM | 8 nM | – | 14 nM | – | – | – | – | – |
